Reference: US6476077B1, “N-(2-phenyl-4-amino-butyl)-1-naphthamides as neurokinin-1 receptor antagonists” (Astrazeneca AB, priority 1999, dated 2002)

Biological target: T1, NK1 receptor (Oryctolagus cuniculus, UniProt G1SEI7)
T1 construct: The pulmonary arteries are isolated from the rest of the tissues and cut in half to serve as pairs; from tissue; host or cells: rabbit pulmonary artery rings (male New Zealand white rabbit)
Assay: Rabbit Pulmonary Artery: NK1 in vitro functional assay (Test C)
Assay type: biochemical
Conditions: rabbit pulmonary artery rings; antagonism of relaxation by agonist ASMSP; -log molar KB; read-out: NK1 pKb (Test C) (converted)
Protocol: Rabbit Pulmonary Artery: NK1 in vitro functional assay (Test C)
The ability of a Compound of the invention to antagonize the action of the agonist Ac-[Arg^6, Sar^9, Met(O2)^11]
Male New Zealand white rabbits are euthanized via i.v. injection into an ear vein with 60 mg/kg Nembutal (50 mg/ml). Preceding the Nembutal into the vein is Heparin (1000 units/ml) at 0.0025 ml/kg for anticoagulant purposes. The chest cavity is opened from the top of the rib cage to the sternum and the heart, lungs and part of the trachea are removed. The pulmonary arteries are isolated from the rest of the tissues and cut in half to serve as pairs.
The segments are suspended between stainless steel stirrups, so as not to remove any of the endothelium, and placed in water-jacketed (37.0° C.) tissue baths containing physiological salt solution of the following composition (mM): NaCl, 118.0; KCl, 4.7; CaCl2, 1.8; MgCl2, 0.54; NaH2PO4, 1.0; NaHCO3, 25.0; glucose, 11.0; indomethacin, 0.005(to inhibit cyclooxygenase); and dl-Propranolol, 0.001(to block β receptors); gassed continuously with 95% O2-5% CO2. Responses are measured on a Grass polygraph via Grass FT-03 transducers and the electrical signals (data) acquired using a Mi^2 software/hardware system for subsequent conversion to measures of relaxation. […]

T1 sequence (G1SEI7 1-407): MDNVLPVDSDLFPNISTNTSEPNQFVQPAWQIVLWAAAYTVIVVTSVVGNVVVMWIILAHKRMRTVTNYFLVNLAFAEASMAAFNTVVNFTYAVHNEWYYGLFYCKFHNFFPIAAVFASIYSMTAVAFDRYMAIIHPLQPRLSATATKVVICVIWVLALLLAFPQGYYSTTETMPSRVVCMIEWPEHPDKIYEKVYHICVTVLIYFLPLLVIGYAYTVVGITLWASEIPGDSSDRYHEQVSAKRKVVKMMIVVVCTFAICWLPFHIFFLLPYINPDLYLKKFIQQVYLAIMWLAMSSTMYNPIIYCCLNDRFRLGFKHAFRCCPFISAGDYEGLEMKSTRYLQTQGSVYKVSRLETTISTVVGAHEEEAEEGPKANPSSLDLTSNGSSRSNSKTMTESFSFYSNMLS

Row | SMILES | Kb [nM]
1 | COc1c(C#N)cc2ccccc2c1C(=O)N(C)CC(CCN1CCOCC1)c1ccc(Cl)c(Cl)c1 (centres unmarked) [Example 4] | 5.01
2 | COc1c(C#N)cc2ccccc2c1C(=O)N(C)CC(CCN(C)C)c1ccc(Cl)c(Cl)c1 (centres unmarked) [Example 6] | 2
